{"source": "patent US20030162796A1", "about": "“Pharmaceutical composition for the treatment of disorders of non-human mammals” (priority 2001, published 2003)", "key": {"SLU-1 tumors": {"tested_on": "SLU-1 tumors", "experiment": "Effect on tumor growth in nude mice (SLU-1 subcutaneous xenograft)", "assay_type": "in vivo", "experimental": "The cell line SLU-1 was cultured as described in Example 2. For use in tumor experiments, cells were trypsinised, washed and suspended in PBS+5% FCS at 10^7 cells/ml. 2×10^6 SLU-1 cells were injected into 40 nude mice (5-10 week-old female Hsd:NMRI-nu/nu purchased from Harlan, The Netherlands for the in vivo experiment with BIBX1382.\n(§1) When tumors were established and had reached diameters of approximately 5 mm as measured with a calliper, mice were randomly distributed into groups of 10 animals so that each tumor size was equally represented in each treatment group. The time span between cell injection and randomisation/start of treatment was sixteen days. Starting ten days after randomisation, mice were treated once daily (at 24 hour intervals) with various doses of the test compound. Administration was intragastral using a gavage needle (Infusionskanule Olive A, Acufirm, No. 14 64 11-1). Therefore, the compound was suspended in 2.5% aqueous HP-beta-CD (hydroxy-propyl-beta-cyclodextrine)/1% aqueous Natrosol (hydroxyethylcellulose). Control mice received the vehicle only. The administration volume was 2.5 to 10 ml per kg mouse body weight. The solutions were proportioned and kept at −20° C.\n(§2) The low dose group received 25 mg/kg/day (day 10-22) and 50 mg/kg/day (day 23-46) of BIBX1382; whereas the high dose group received 50 mg/kg/day (day 10-22), 70 mg/kg/day (day 23-30) and 100 mg/kg/day (day 31-46) of BIBX1382. The control group was treated with vehicle only.\nTumors were measured three times a week (Monday, Wednesday and Friday) with a calliper. Volumes [in mm^3] were then calculated according to the formula (tumor volume=length*diameter^2*π/6). To monitor side effects of treatment, mice were inspected daily for abnormalities and weighed three times (Monday, Wednesday and Friday) a week.\nTumor volumes were expressed as mean absolute tumor volumes [in mm^3] and plotted over days of treatment.\nThe specific relative tumor volumes (T/C [%], i.e. the mean relative tumor volumes of groups of compound-treated tumors in % of the mean relative tumor volume of the vehicle-treated control tumors: T/C [%]=100*mean Vrel compound-treated/mean Vrel vehicle-treated) were determined on the day following the final day of treatment.\nExperiments were usually terminated when vehicle control mice had to be killed because of large tumor sizes (1200 to 1700 mm^3)."}, "[1]": {"experiment": "Plasma levels of BIBX1382 of the treated mice", "assay_type": "in vivo, nude mice", "conditions": "for concentration at 2 h / concentration at 6 h / concentration at 24 h: nude, mouse, plasma, oral, read-out: plasma level, mean; for concentration at 2 h: 2 h after last compound administration on day 46; for concentration at 6 h: 6 h after last compound administration on day 46; for concentration at 24 h: 24 h after last compound administration on day 46", "experimental": "as §1, §2\nWith plasma levels of […] at 2 hours after oral compound administration a reduction of the growth rate to a T/C value of 62% was achieved."}, "CRL-6234 cells": {"tested_on": "CRL-6234 cells", "experiment": "3H-Thymidin proliferation assay, CRL-6234 (normal cell line)", "assay_type": "cell-based, canine", "experimental": "(§3) The ability of BIBX1382 to inhibit the proliferation of cells in culture was tested with a ^3H-Thymidin proliferation assays. This assay was performed with three tumor cell lines (SLU-1, SLU-4, SH1b) and a normal cell line (CRL-6234).\n(§4) A pilot experiment with 500 to 12.000 cells per well in a 96-well plate in the presence of different concentrations of FCS (0% to 10%) was performed. After different proliferation times (24 h, 48 h, 72 h and 96 h), 10 μl ^3H-Thymidin (1:100 in PBS) were added, after incubation the plate was frozen, then thawed and the cells were harvested. The ^3H-Thymidin incorporation rate was determined. […] To determine a possible growth inhibitory effect of the inhibitor BIBX1382 on the cell lines, different concentrations (5 nM-10000 nM) of the inhibitor were used. Again ^3H-Thymidin was added, after incubation the plate was frozen, then thawed and the cells were harvested. The ^3H-Thymidin incorporation rate was determined in dependance of the concentration of inhibitor."}, "SLU-4 cells": {"tested_on": "SLU-4 cells", "experiment": "3H-Thymidin proliferation assay, SLU-4", "assay_type": "cell-based, canine", "conditions": "inhibitor 5 nM-10000 nM", "experimental": "as §3, §4"}, "SLU-1 cells": {"tested_on": "SLU-1 cells", "experiment": "3H-Thymidin proliferation assay, SLU-1", "assay_type": "cell-based, canine", "conditions": "inhibitor 5 nM-10000 nM", "experimental": "as §3, §4"}, "SH1b cells": {"tested_on": "SH1b cells", "experiment": "3H-Thymidin proliferation assay, SH1b", "assay_type": "cell-based, canine", "conditions": "FIG. 3", "experimental": "as §3, §4\nThe ^3H-Thymidin proliferation assay was also done with the tumor cell line SH1b."}}, "note": "Where two headings read alike, the source gives them in different places.", "data": [{"molecule": "CN1CCC(Nc2ncc3ncnc(Nc4ccc(F)c(Cl)c4)c3n2)CC1", "note": "[BIBX1382, 4-((3-chloro-4-fluoro-phenyl)amino)-6-(1-methyl-4-piperidinyl-amino)-pyrimido(5,4d)pyrimidine]", "values": [{"measurement": "SLU-1 tumor growth", "setting": "SLU-1 tumors; all tested doses, oral once daily, FIGS. 4 and 5", "result": "influenced SLU-1 tumor growth at all tested doses"}, {"measurement": "T/C values compared to the vehicle control group (standard T-test)", "setting": "SLU-1 tumors; both dose groups (low and high)", "result": "significantly lower"}, {"measurement": "T/C", "setting": "SLU-1 tumors; high dose group (Group 2), 50 → 70 → 100 mg/kg/day, after 100 mg/kg/day (day 31-46), day 47", "result": 38, "unit": "%"}, {"measurement": "T/C", "setting": "SLU-1 tumors; high dose group after 50 mg/kg/day (day 10-22)", "result": 52, "unit": "%"}, {"measurement": "T/C", "setting": "SLU-1 tumors; high dose group after 70 mg/kg/day (day 23-30)", "result": 53, "unit": "%"}, {"measurement": "increase in tumor size at maximum", "setting": "SLU-1 tumors; high dose group, 50 mg/kg/day, day 10-22, all ten tumors", "result": "5-6 fold"}, {"measurement": "increase in tumor size", "setting": "SLU-1 tumors; high dose group, 70 mg/kg/day, day 23-30", "result": "about 2 fold"}, {"measurement": "increase in tumor size", "setting": "SLU-1 tumors; high dose group, 100 mg/kg/day, day 31-46", "result": "1.5-1.9 fold"}, {"measurement": "increase in tumor size on average", "setting": "SLU-1 tumors; high dose group, whole period of treatment", "result": 20, "unit": "fold"}, {"measurement": "T/C", "setting": "SLU-1 tumors; low dose group (Group 1), 25 → 50 mg/kg/day, after 50 mg/kg/day (day 23-46), day 47", "result": 62, "unit": "%"}, {"measurement": "T/C", "setting": "SLU-1 tumors; low dose group after 25 mg/kg/day (day 10-22)", "result": 78, "unit": "%"}, {"measurement": "increase in tumor size", "setting": "SLU-1 tumors; low dose group, 25 mg/kg/day, day 10-22, 9 of 10 tumors", "result": 8, "unit": "fold"}, {"measurement": "tumor volume change", "setting": "SLU-1 tumors; low dose group, 25 mg/kg/day, day 10-22, one of 10 tumors", "result": "did not change at all"}, {"measurement": "increase in tumor size", "setting": "SLU-1 tumors; low dose group, 50 mg/kg/day, day 23-46, all 10 tumors", "result": "3-6 fold"}, {"measurement": "increase in tumor size on average", "setting": "SLU-1 tumors; low dose group, whole period of treatment (day 10-46)", "result": 35, "unit": "fold"}, {"measurement": "plasma level", "setting": "[1]; 2 hours after oral compound administration, level giving T/C 38%", "result": "approximately 4000 mmol/l"}, {"measurement": "concentration at 2 h", "setting": "[1]; 50 mg/kg", "result": 3.17, "unit": "µM"}, {"measurement": "concentration at 6 h", "setting": "[1]; 50 mg/kg", "result": 2.85, "unit": "µM"}, {"measurement": "concentration at 24 h", "setting": "[1]; 50 mg/kg", "result": 0.394, "unit": "µM"}, {"measurement": "concentration at 2 h", "setting": "[1]; 100 mg/kg", "result": 4.16, "unit": "µM"}, {"measurement": "concentration at 6 h", "setting": "[1]; 100 mg/kg", "result": 4.09, "unit": "µM"}, {"measurement": "concentration at 24 h", "setting": "[1]; 100 mg/kg", "result": 0.591, "unit": "µM"}, {"measurement": "effect on normal cell line at high concentrations", "setting": "CRL-6234 cells; high concentrations", "result": "toxic effects at high concentrations"}, {"measurement": "proliferation at lower concentration", "setting": "CRL-6234 cells; lower concentration", "result": "not inhibited"}, {"measurement": "proliferation rate (3H-Thymidin incorporation)", "setting": "SLU-4 cells", "result": "not affected"}, {"measurement": "proliferation rate (3H-Thymidin incorporation)", "setting": "SLU-1 cells", "result": "inhibited in their proliferation rate"}, {"measurement": "proliferation (3H-Thymidin incorporation)", "setting": "SH1b cells", "result": "inhibited in its proliferation time"}]}]}
